Results on five molecules are retold here after patent US5329002A, “Antibacterial cephalosporin compounds” (Hoffmann-La Roche Inc., priority 1990, dated 1994).

Structures can show the parent of a compound that is named as a salt. Where two headings read alike, the source gives them in different places.

Common to all, as to assay type: cell-based
For one test, the system named is E. coli ATCC 25922. Kind of test: In vitro MIC, Broth Dilution Method, E. coli ATCC 25922. Particulars: Escherichia coli. The text has this:
(§1) The in vitro activity of the compounds of the present invention as measured by the Minimum Inhibitory Concentration (MIC) in micrograms/ml utilizing the Broth Dilution Method against a variety of Gram-positive and Gram-negative organisms, is as follows:
(§2) Concentration (MIC) in micrograms/ml utilizing the Broth Dilution Method against a variety of Gram-positive and Gram-negative organisms, is as follows:
(§3) In Vitro MIC (μg/ml), Broth Dilution Method

In a further test the test system is E. coli TEM 1. Kind of test: microbe, parasite or virus in culture. Particulars: Escherichia coli, TEM1, read-out: In Vitro MIC.
Excerpt: as §1, §2, §3

In another test the test system is E. cloacae 5699. Kind of test: In vitro MIC, Broth Dilution Method, E. cloacae 5699.
Excerpt: as §1, §2, §3

A further test deals with E. cloacae P99. Put plainly: In vitro MIC, Broth Dilution Method, E. cloacae P99. Particulars: Enterobacter cloacae, P99, read-out: In Vitro MIC.
Excerpt: as §1, §2, §3

The test system of a further test is S. marcescens 1071. Put plainly: In vitro MIC, Broth Dilution Method, S. marcescens 1071.
A further test deals with P. aeruginosa 8710. Put plainly: In vitro MIC, Broth Dilution Method, P. aeruginosa 8710. Particulars: Pseudomonas aeruginosa.
Excerpt: as §1, §2, §3

For the next test, the system named is P. aeruginosa 18 S/H. Put plainly: In vitro MIC, Broth Dilution Method, P. aeruginosa 18 S/H. Particulars: Pseudomonas aeruginosa.
Excerpt: as §1, §2, §3

A further test has as its system E. faecalis ATCC 29212. Kind of test: In vitro MIC, Broth Dilution Method, E. faecalis ATCC 29212. Particulars: Enterococcus faecalis, ATCC29212.
Excerpt: as §1, §2, §3

In another test the test system is S. pneumoniae 6301. Put plainly: In vitro MIC, Broth Dilution Method, S. pneumoniae 6301.
Excerpt: as §1, §2, §3

The test system of the next test is S. aureus 1059B. Put plainly: In vitro MIC, Broth Dilution Method, S. aureus 1059B. Particulars: Staphylococcus aureus.
The subject of the next test is S. aureus 95. Put plainly: In vitro MIC, Broth Dilution Method, S. aureus 95.
Excerpt: as §1, §2, §3

A further test concerns S. aureus ATCC 29213. Kind of test: In vitro MIC, Broth Dilution Method, S. aureus ATCC 29213. Particulars: Staphylococcus aureus.
Setting [1] is: ATCC25922, read-out: In Vitro MIC.
Setting [2] is: Enterobacter cloacae, 5699, read-out: In Vitro MIC.
The mark [3] stands for this setting: Serratia marcescens, Broth Dilution Method, S. marcescens 1071, read-out: In Vitro MIC.
The mark [4] stands for this setting: Streptococcus pneumoniae, Broth Dilution Method, S. pneumoniae 6301, read-out: In Vitro MIC.
[5] abbreviates: Staphylococcus aureus, Broth Dilution Method, S. aureus 95, read-out: In Vitro MIC.
The mark [6] stands for this setting: ATCC29213, Broth Dilution Method, S. aureus ATCC 29213, read-out: In Vitro MIC.
Where [7] appears, read: Enterobacter cloacae, Broth Dilution Method, E. cloacae 5699, read-out: In Vitro MIC.
Setting [8] is: Streptococcus pneumoniae, 6301, read-out: In Vitro MIC.
The mark [9] stands for this setting: Staphylococcus aureus, 95, read-out: In Vitro MIC.

In the case of `C[N+]1(CC2=C(C(=O)O)N3C(=O)[C@@H](NC=O)[C@H]3SC2)CCN(c2c(F)cc3c(=O)c(C(=O)O)cn(CCF)c3c2F)CC1` [Compound E, trifluoroacetate salt], the MIC in the test on E. coli ATCC 25922 (setting [1]) is 0.5 µg/mL; with E. coli TEM 1 it was 0.5 µg/mL; in the test with E. cloacae 5699 (setting [2]) it was 0.5 µg/mL; in the test on E. cloacae P99, 0.5 µg/mL; in the test with S. marcescens 1071 (setting [3]), 1 µg/mL; against P. aeruginosa 8710, 8 µg/mL. Also, the MIC in the test with P. aeruginosa 18 S/H worked out at 8 µg/mL; against E. faecalis ATCC 29212, 32 µg/mL; with S. pneumoniae 6301 (setting [4]), 1 µg/mL; in the test on S. aureus 1059B, 0.5 µg/mL; with S. aureus 95 (setting [5]), 1 µg/mL; with S. aureus ATCC 29213 (setting [6]), 0.5 µg/mL.

`CO/N=C(\C(=O)N[C@@H]1C(=O)N2C(C(=O)O)=C(C[N+]3(C)CCN(c4c(F)cc5c(=O)c(C(=O)O)cn(CCF)c5c4F)CC3)CS[C@H]12)c1csc(N)n1` [Compound A, [6R-[6α,7β(Z)]]-1-[7-[[[(2-amino-4-thiazolyl)(methoxyimino)acetyl]amino]-2-carboxy-8-oxo-5-thia-1-azabicyclo[4.2.0]oct-2-en-3-yl]methyl]-4-[3-carboxy-6,8-difluoro-1-(2-fluoroethyl)-1,4-dihydro-4-oxo-7-quinolinyl]-1-methylpiperazinium iodide]: the MIC came to 0.25 µg/mL with E. coli ATCC 25922 (setting [1]); 0.25 µg/mL in the test with E. coli TEM 1; 0.5 µg/mL in the test with E. cloacae 5699 (setting [7]); 0.5 µg/mL in the test with E. cloacae P99; 0.5 µg/mL with S. marcescens 1071 (setting [3]); 8 µg/mL with P. aeruginosa 8710. Moreover, the MIC was 8 µg/mL against P. aeruginosa 18 S/H; 64 µg/mL in the test with E. faecalis ATCC 29212; 0.063 µg/mL in the test on S. pneumoniae 6301 (setting [8]); 2 µg/mL against S. aureus 1059B; 4 µg/mL in the test with S. aureus 95 (setting [5]); 4 µg/mL in the test on S. aureus ATCC 29213 (setting [6]).

For `CC(C)(O/N=C(\C(=O)N[C@@H]1C(=O)N2C(C(=O)[O-])=C(C[N+]3(C)CCN(c4c(F)cc5c(=O)c(C(=O)O)cn(CCF)c5c4F)CC3)CS[C@H]12)c1csc(N)n1)C(=O)O` [Compound C, [6R-[6α,7β(Z)]]-1-[[7-[[[(2-amino-4-thiazolyl)[1-(1-carboxy-1-methyl)ethoxy]imino]acetyl]amino]-8-oxo-5-thia-1-azabicyclo-[4.2.0]oct-2-en-3-yl]methyl]-4-[3-carboxy-1-(2-fluoroethyl)-6,8-difluoro-1,4-dihydro-4-oxoquinolin-7-yl]-1-methylpiperazinium hydroxide inner salt monosodium salt], the MIC in the test with E. coli ATCC 25922 (ATCC25922, Broth Dilution Method, E. coli ATCC 25922, read-out: In Vitro MIC) turned out to be 0.25 µg/mL; in the test with E. coli TEM 1 it was 0.5 µg/mL; in the test with E. cloacae 5699 (setting [2]) it was 0.5 µg/mL; in the test with E. cloacae P99, 2 µg/mL; with S. marcescens 1071 (Serratia marcescens, 1071, read-out: In Vitro MIC), 0.5 µg/mL; in the test on P. aeruginosa 8710, 8 µg/mL. For the same molecule, the MIC in the test with P. aeruginosa 18 S/H is 8 µg/mL; against E. faecalis ATCC 29212, 32 µg/mL; in the test with S. pneumoniae 6301 (setting [4]) it was 1 µg/mL; against S. aureus 1059B it was 8 µg/mL; in the test on S. aureus 95 (setting [9]), 4 µg/mL; in the test with S. aureus ATCC 29213 (ATCC29213, read-out: In Vitro MIC), 4 µg/mL.

As for `C[N+]1(CC2=C(C(=O)O)N3C(=O)[C@@H](NC(=O)COc4ccccc4)[C@H]3SC2)CCN(c2c(F)cc3c(=O)c(C(=O)O)cn(CCF)c3c2F)CC1.[I-]` [Compound B, (6R-trans)-4-[3-carboxy-1-(2-fluoroethyl)-6,8-difluoro-1,4-dihydro-4-oxoquinolin-7-yl]-1-[[2-carboxy-8-oxo-7-[(phenoxyacetyl)amino]-5-thia-1-azabicyclo-[4.2.0]oct-2-en-3-yl]methyl]-1-methyl-piperazinium iodide], the MIC was 0.5 µg/mL in the test with E. coli ATCC 25922 (setting [1]); 0.5 µg/mL in the test on E. coli TEM 1; 0.5 µg/mL in the test on E. cloacae 5699 (setting [2]); 0.5 µg/mL in the test on E. cloacae P99; 8 µg/mL against P. aeruginosa 8710; 4 µg/mL in the test on P. aeruginosa 18 S/H. The MIC came to 32 µg/mL against E. faecalis ATCC 29212, 0.25 µg/mL in the test with S. pneumoniae 6301 (setting [4]) and 1 µg/mL with S. aureus 95 (setting [9]).

Regarding `CCn1cc(C(=O)O)c(=O)c2cc(F)c(N3CC[N+](C)(CC4=C(C(=O)O)N5C(=O)[C@@H](NC(=O)/C(=N\OC)c6csc(N)n6)[C@H]5SC4)CC3)cc21` [Compound D, [6R-[6α,7β(Z)]]-1-[[7-[[(2-amino-4-thiazolyl)(methoxyimino)acetyl]amino]-2-carboxy-8-oxo-5-thia-1-azabicyclo[4.2.0]-oct-2-en-3-yl]methyl]-4-(3-carboxy-1-ethyl-6-fluoro-1,4-dihydro-4-oxo-7-quinolinyl)-1-methylpiperazinium iodide], the MIC was found to be 0.5 µg/mL in the test with E. coli ATCC 25922 (setting [1]); 0.5 µg/mL in the test on E. coli TEM 1; 1 µg/mL in the test with E. cloacae 5699 (setting [7]); 1 µg/mL with E. cloacae P99; 0.5 µg/mL in the test with S. marcescens 1071 (setting [3]); 8 µg/mL against P. aeruginosa 8710. For the same molecule, the MIC in the test with P. aeruginosa 18 S/H is 32 µg/mL; with E. faecalis ATCC 29212, 32 µg/mL; in the test on S. pneumoniae 6301 (setting [8]), 0.063 µg/mL; in the test on S. aureus 1059B, 2 µg/mL; in the test on S. aureus 95 (setting [5]), 4 µg/mL; with S. aureus ATCC 29213 (setting [6]), 4 µg/mL.
